Like-named read-outs stand apart in the source and are kept apart here.
What was measured:
Assay type in all cases: in vivo
[1] = tested on: morningglory (Ipomoea coccinea); assay: Test C pre/postemergence; details: Ipomoea; for pest or weed control at 31 g/ha: 31 g ai/ha; for pest or weed control at 62 g/ha: 62 g ai/ha; for pest or weed control at 125 g/ha: 125 g ai/ha; for pest or weed control at 250 g/ha: 250 g ai/ha
Procedure, shortened: (§1)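 We sprayed seeded pots preemergence and 2–18 cm seedlings postemergence with test chemicals in a non-phytotoxic solvent mixture including surfactant. Greenhouse plants were visually compared with untreated controls at 12 to 14 days and scored 0 (no effect) to 100 (complete control).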

[2] = tested on: pigweed (Amaranthus retroflexus); assay: Test C pre/postemergence; details: Amaranthus retroflexus; for pest or weed control at 31 g/ha: 31 g ai/ha; for pest or weed control at 62 g/ha: 62 g ai/ha; for pest or weed control at 125 g/ha: 125 g ai/ha; for pest or weed control at 250 g/ha: 250 g ai/ha
Procedure, shortened: as §1

soybean (Glycine max) = assay: Test C pre/postemergence; details: Glycine max; for plant injury at 31 g/ha: 31 g ai/ha; for plant injury at 62 g/ha: 62 g ai/ha; for plant injury at 125 g/ha: 125 g ai/ha; for plant injury at 250 g/ha: 250 g ai/ha
Procedure, shortened: as §1

[3] = tested on: woolly cupgrass (Eriochloa villosa); assay: Test C pre/postemergence; details: Eriochloa villosa; for pest or weed control at 31 g/ha: 31 g ai/ha; for pest or weed control at 62 g/ha: 62 g ai/ha; for pest or weed control at 125 g/ha: 125 g ai/ha; for pest or weed control at 250 g/ha: 250 g ai/ha
Procedure, shortened: as §1

[4] = tested on: yellow nutsedge (Cyperus esculentus); assay: Test C pre/postemergence; details: Cyperus; for pest or weed control at 31 g/ha: 31 g ai/ha; for pest or weed control at 62 g/ha: 62 g ai/ha; for pest or weed control at 125 g/ha: 125 g ai/ha; for pest or weed control at 250 g/ha: 250 g ai/ha
Procedure, shortened: as §1

[5] = tested on: chickweed (Stellaria media); assay: Test C postemergence; details: Stellaria media, post-emergence
Procedure, shortened: as §1

[6] = post-emergence, Postemergence, scale 0 to 100 (0 no effect, 100 complete control), read-out: Morningglory plant response rating
[7] = pre-emergence, Preemergence, scale 0 to 100, 0 no effect, 100 complete control, read-out: Plant response rating, Morningglory
[8] = pre-emergence, Preemergence, scale 0 to 100, read-out: Plant response rating, Morningglory
[9] = post-emergence, Postemergence, scale 0 to 100 (0 no effect, 100 complete control), read-out: Pigweed plant response rating
[10] = pre-emergence, Preemergence, scale 0 to 100, 0 no effect, 100 complete control, read-out: Plant response rating, Pigweed
[11] = pre-emergence, Preemergence, scale 0 to 100, read-out: Plant response rating, Pigweed
[12] = post-emergence, Postemergence, scale 0 to 100 (0 no effect, 100 complete control), read-out: Soybean plant response rating
[13] = pre-emergence, Preemergence, scale 0 to 100, 0 no effect, 100 complete control, read-out: Plant response rating, Soybean
[14] = pre-emergence, Preemergence, scale 0 to 100, read-out: Plant response rating, Soybean
[15] = post-emergence, Postemergence, scale 0 to 100 (0 no effect, 100 complete control), read-out: Cupgrass, Woolly plant response rating
[16] = pre-emergence, Preemergence, scale 0 to 100, 0 no effect, 100 complete control, read-out: Plant response rating, Cupgrass, Woolly
[17] = pre-emergence, Preemergence, scale 0 to 100, read-out: Plant response rating, Cupgrass, Woolly
[18] = post-emergence, Postemergence, scale 0 to 100 (0 no effect, 100 complete control), read-out: Nutsedge, Yellow plant response rating
[19] = pre-emergence, Preemergence, scale 0 to 100, 0 no effect, 100 complete control, read-out: Plant response rating, Nutsedge, Yellow
[20] = pre-emergence, Preemergence, scale 0 to 100, read-out: Plant response rating, Nutsedge, Yellow

## COC(=O)c1nc(C(C)C)nc(N)c1Br [Compound 3]
[1]; post-emergence, Postemergence, read-out: Plant response rating (scale of 0 to 100), Morningglory
  pest or weed control at 31 g/ha: 45%
[1]; [6]
  pest or weed control at 62 g/ha: 60%
  pest or weed control at 125 g/ha: 65%
[1]; post-emergence, Postemergence, scale 0 to 100, read-out: Plant response rating, Morningglory
  pest or weed control at 250 g/ha: 75%
[1]; [7]
  pest or weed control at 31 g/ha: 0%
  pest or weed control at 62 g/ha: 0%
[1]; [8]
  pest or weed control at 125 g/ha: 20%
  pest or weed control at 250 g/ha: 35%
[2]; post-emergence, Postemergence, read-out: Plant response rating (scale of 0 to 100), Pigweed
  pest or weed control at 31 g/ha: 60%
[2]; [9]
  pest or weed control at 62 g/ha: 65%
  pest or weed control at 125 g/ha: 75%
[2]; post-emergence, Postemergence, scale 0 to 100, read-out: Plant response rating, Pigweed
  pest or weed control at 250 g/ha: 80%
[2]; [10]
  pest or weed control at 31 g/ha: 20%
  pest or weed control at 62 g/ha: 50%
[2]; [11]
  pest or weed control at 125 g/ha: 65%
  pest or weed control at 250 g/ha: 80%
Soybean (Glycine max); post-emergence, Postemergence, read-out: Plant response rating (scale of 0 to 100), Soybean
  plant injury at 31 g/ha: 60%
Soybean (Glycine max); [12]
  plant injury at 62 g/ha: 75%
  plant injury at 125 g/ha: 90%
Soybean (Glycine max); post-emergence, Postemergence, scale 0 to 100, read-out: Plant response rating, Soybean
  plant injury at 250 g/ha: 95%
Soybean (Glycine max); [13]
  plant injury at 31 g/ha: 0%
  plant injury at 62 g/ha: 0%
Soybean (Glycine max); [14]
  plant injury at 125 g/ha: 15%
  plant injury at 250 g/ha: 20%
[3]; post-emergence, Postemergence, read-out: Plant response rating (scale of 0 to 100), Cupgrass, Woolly
  pest or weed control at 31 g/ha: 0%
[3]; [15]
  pest or weed control at 62 g/ha: 0%
  pest or weed control at 125 g/ha: 0%
[3]; post-emergence, Postemergence, scale 0 to 100, read-out: Plant response rating, Cupgrass, Woolly
  pest or weed control at 250 g/ha: 0%
[3]; [16]
  pest or weed control at 31 g/ha: 0%
  pest or weed control at 62 g/ha: 0%
[3]; [17]
  pest or weed control at 125 g/ha: 0%
  pest or weed control at 250 g/ha: 0%
[4]; post-emergence, Postemergence, read-out: Plant response rating (scale of 0 to 100), Nutsedge, Yellow
  pest or weed control at 31 g/ha: 0%
[4]; [18]
  pest or weed control at 62 g/ha: 0%
  pest or weed control at 125 g/ha: 0%
[4]; post-emergence, Postemergence, scale 0 to 100, read-out: Plant response rating, Nutsedge, Yellow
  pest or weed control at 250 g/ha: 0%
[4]; [19]
  pest or weed control at 31 g/ha: 0%
  pest or weed control at 62 g/ha: 0%
[4]; [20]
  pest or weed control at 125 g/ha: 0%
  pest or weed control at 250 g/ha: 0%
[5]; 31 g ai/ha, read-out: Plant response rating (scale of 0 to 100), Chickweed
  pest or weed control at 31 g/ha: 0%
[5]; 62 g ai/ha, scale 0 to 100 (0 no effect, 100 complete control), read-out: Chickweed plant response rating
  pest or weed control at 62 g/ha: 0%
[5]; 125 g ai/ha, scale 0 to 100, read-out: Plant response rating, Chickweed
  pest or weed control at 125 g/ha: 0%
[5]; 250 g ai/ha, scale 0 to 100, read-out: Plant response rating, Chickweed
  pest or weed control at 250 g/ha: 40%

Source: US8802597B2, “Herbicidal pyrimidines” (E I du Pont de Nemours and Company, priority 2003, dated 2014)
